In PMC11420776 (RSC Advances, 2024):

Experiments:
[1] = MTT cytotoxicity assay, MCF10a; format: cell-based; details: human, MCF10a normal mammary epithelial cells
caspase-9 = assay: Caspase-9; format: cell-based, human; details: MCF7 cells, versus untreated control cells
M14 (melanoma) = assay: NCI 60-cell one-dose antiproliferative screen; format: cell-based, human; details: one dose 10 μM
SF-539 (CNS cancer) = assay: NCI 60-cell one-dose antiproliferative screen; format: cell-based, human; details: one dose 10 μM
CAKI-1 (renal cancer) = assay: NCI 60-cell one-dose antiproliferative screen; format: cell-based, human; details: one dose 10 μM
HCC-2998 (colon cancer) = assay: NCI 60-cell one-dose antiproliferative screen; format: cell-based, human; details: one dose 10 μM
OVCAR-5 (ovarian cancer) = assay: NCI 60-cell one-dose antiproliferative screen; format: cell-based, human; details: one dose 10 μM
COLO-205 (colon cancer) = assay: NCI 60-cell one-dose antiproliferative screen; format: cell-based, human; details: one dose 10 μM
MALME-3M (melanoma) = assay: NCI 60-cell one-dose antiproliferative screen; format: cell-based, human; details: one dose 10 μM
MCF7 (breast cancer) = assay: NCI 60-cell one-dose antiproliferative screen; format: cell-based, human; details: one dose 10 μM
[2] = tested on: A549/ATCC (NSC lung cancer); assay: NCI 60-cell one-dose antiproliferative screen; format: cell-based, human; details: one dose 10 μM
KM12 (colon cancer) = assay: NCI 60-cell one-dose antiproliferative screen; format: cell-based, human; details: one dose 10 μM
OVCAR-4 (ovarian cancer) = assay: NCI 60-cell one-dose antiproliferative screen; format: cell-based, human; details: one dose 10 μM
HCT-116 (colon cancer) = assay: NCI 60-cell one-dose antiproliferative screen; format: cell-based, human; details: one dose 10 μM
UACC-257 (melanoma) = assay: NCI 60-cell one-dose antiproliferative screen; format: cell-based, human; details: one dose 10 μM
IGROV1 (ovarian cancer) = assay: NCI 60-cell one-dose antiproliferative screen; format: cell-based, human; details: one dose 10 μM
[3] = tested on: NCI-H226 (NSC lung cancer); assay: NCI 60-cell one-dose antiproliferative screen; format: cell-based, human; details: one dose 10 μM
SNB-19 (CNS cancer) = assay: NCI 60-cell one-dose antiproliferative screen; format: cell-based, human; details: one dose 10 μM
[4] = tested on: MDA-MB-231/ATCC (breast cancer); assay: NCI 60-cell one-dose antiproliferative screen; format: cell-based, human; details: one dose 10 μM
SK-MEL-28 (melanoma) = assay: NCI 60-cell one-dose antiproliferative screen; format: cell-based, human; details: one dose 10 μM
TK-10 (renal cancer) = assay: NCI 60-cell one-dose antiproliferative screen; format: cell-based, human; details: one dose 10 μM
OVCAR-8 (ovarian cancer) = assay: NCI 60-cell one-dose antiproliferative screen; format: cell-based, human; details: one dose 10 μM
SNB-75 (CNS cancer) = assay: NCI 60-cell one-dose antiproliferative screen; format: cell-based, human; details: one dose 10 μM
[5] = tested on: NCI/ADR-RES (ovarian cancer); assay: NCI 60-cell one-dose antiproliferative screen; format: cell-based, human; details: one dose 10 μM
OVCAR-3 (ovarian cancer) = assay: NCI 60-cell one-dose antiproliferative screen; format: cell-based, human; details: one dose 10 μM
HT29 (colon cancer) = assay: NCI 60-cell one-dose antiproliferative screen; format: cell-based, human; details: one dose 10 μM
ACHN (renal cancer) = assay: NCI 60-cell one-dose antiproliferative screen; format: cell-based, human; details: one dose 10 μM
LOX IMIV (melanoma) = assay: NCI 60-cell one-dose antiproliferative screen; format: cell-based, human; details: one dose 10 μM
CCRF-CEM (leukemia) = assay: NCI 60-cell one-dose antiproliferative screen; format: cell-based, human; details: one dose 10 μM
T-47D (breast cancer) = assay: NCI 60-cell one-dose antiproliferative screen; format: cell-based, human; details: one dose 10 μM
[6] = tested on: NCI-H23 (NSC lung cancer); assay: NCI 60-cell one-dose antiproliferative screen; format: cell-based, human; details: one dose 10 μM
U251 (CNS cancer) = assay: NCI 60-cell one-dose antiproliferative screen; format: cell-based, human; details: one dose 10 μM
[7] = tested on: NCI-H460 (NSC lung cancer); assay: NCI 60-cell one-dose antiproliferative screen; format: cell-based, human; details: one dose 10 μM
UACC-62 (melanoma) = assay: NCI 60-cell one-dose antiproliferative screen; format: cell-based, human; details: one dose 10 μM
[8] = tested on: NCI-H322M (NSC lung cancer); assay: NCI 60-cell one-dose antiproliferative screen; format: cell-based, human; details: one dose 10 μM
[9] = tested on: 60 human tumor cell lines; assay: NCI 60-cell one-dose antiproliferative screen, whole panel; format: cell-based; details: Homo sapiens, 60 cell, read-out: Mean inhibition (mean GI%)
HOP-92 (NSC lung cancer) = assay: NCI 60-cell one-dose antiproliferative screen; format: cell-based, human; details: one dose 10 μM
786-0 (renal cancer) = assay: NCI 60-cell one-dose antiproliferative screen; format: cell-based, human; details: one dose 10 μM
SF-295 (CNS cancer) = assay: NCI 60-cell one-dose antiproliferative screen; format: cell-based, human; details: one dose 10 μM
[10] = tested on: NCI-H522 (NSC lung cancer); assay: NCI 60-cell one-dose antiproliferative screen; format: cell-based, human; details: one dose 10 μM
EKVX (NSC lung cancer) = assay: NCI 60-cell one-dose antiproliferative screen; format: cell-based, human; details: one dose 10 μM
SF-268 (CNS cancer) = assay: NCI 60-cell one-dose antiproliferative screen; format: cell-based, human; details: one dose 10 μM
DU-145 (prostate cancer) = assay: NCI 60-cell one-dose antiproliferative screen; format: cell-based, human; details: one dose 10 μM
PC-3 (prostate cancer) = assay: NCI 60-cell one-dose antiproliferative screen; format: cell-based, human; details: one dose 10 μM
RPMI-8226 (leukemia) = assay: NCI 60-cell one-dose antiproliferative screen; format: cell-based, human; details: one dose 10 μM
SN12C (renal cancer) = assay: NCI 60-cell one-dose antiproliferative screen; format: cell-based, human; details: one dose 10 μM
SW-620 (colon cancer) = assay: NCI 60-cell one-dose antiproliferative screen; format: cell-based, human; details: one dose 10 μM
MDA-MB-435 (melanoma) = assay: NCI 60-cell one-dose antiproliferative screen; format: cell-based, human; details: one dose 10 μM
SK-MEL-2 (melanoma) = assay: NCI 60-cell one-dose antiproliferative screen; format: cell-based, human; details: one dose 10 μM
A498 (renal cancer) = assay: NCI 60-cell one-dose antiproliferative screen; format: cell-based, human; details: one dose 10 μM
SK-OV-3 (ovarian cancer) = assay: NCI 60-cell one-dose antiproliferative screen; format: cell-based, human; details: one dose 10 μM
HOP-62 (NSC lung cancer) = assay: NCI 60-cell one-dose antiproliferative screen; format: cell-based, human; details: one dose 10 μM
UO-31 (renal cancer) = assay: NCI 60-cell one-dose antiproliferative screen; format: cell-based, human; details: one dose 10 μM
HCT-15 (colon cancer) = assay: NCI 60-cell one-dose antiproliferative screen; format: cell-based, human; details: one dose 10 μM
HS 578T (breast cancer) = assay: NCI 60-cell one-dose antiproliferative screen; format: cell-based, human; details: one dose 10 μM
RXF 393 (renal cancer) = assay: NCI 60-cell one-dose antiproliferative screen; format: cell-based, human; details: one dose 10 μM
[11] = tested on: MDA-MB-468 (breast cancer); assay: NCI 60-cell one-dose antiproliferative screen; format: cell-based, human; details: one dose 10 μM

CN[C@@H]1C[C@H]2O[C@@](C)([C@@H]1OC)n1c3ccccc3c3c4c(c5c6ccccc6n2c5c31)C(=O)NC4 [Staurosporine, reference compound]
IC50 at 72 h [1]: 18.3 ± 8.03 µM
increase of apoptotic caspase-9 level (caspase-9): 7.19 fold

Cc1ccc(-c2nnc3ccc(NN=Cc4ccccc4)nn23)cc1 [Compound 4d, 6-(2-Benzylidenehydrazinyl)-3-(p-tolyl)-[1,2,4]triazolo[4,3-b]pyridazine]
GI% (M14 (melanoma)): 32.66%
GI% (SF-539 (CNS cancer)): 19.19%
GI% (CAKI-1 (renal cancer)): 16.69%
GI% (HCC-2998 (colon cancer)): — (— GI% is below 15%)
GI% (OVCAR-5 (ovarian cancer)): — (— GI% is below 15%)
GI% (COLO-205 (colon cancer)): — (— GI% is below 15%)
GI% (MALME-3M (melanoma)): — (— GI% is below 15%)
GI% (MCF7 (breast cancer)): 52.06%
GI% [2]: — (— GI% is below 15%)
GI% (KM12 (colon cancer)): 42.77%
GI% (OVCAR-4 (ovarian cancer)): 30.86%
GI% (HCT-116 (colon cancer)): — (— GI% is below 15%)
GI% (UACC-257 (melanoma)): — (— GI% is below 15%)
GI% (IGROV1 (ovarian cancer)): — (— GI% is below 15%)
GI% [3]: — (— GI% is below 15%)
GI% (SNB-19 (CNS cancer)): — (— GI% is below 15%)
GI% [4]: — (— GI% is below 15%)
GI% (SK-MEL-28 (melanoma)): — (— GI% is below 15%)
GI% (TK-10 (renal cancer)): — (— GI% is below 15%)
GI% (OVCAR-8 (ovarian cancer)): — (— GI% is below 15%)
GI% (SNB-75 (CNS cancer)): >100%
GI% [5]: 15.93%
GI% (OVCAR-3 (ovarian cancer)): 69.65%
GI% (HT29 (colon cancer)): — (— GI% is below 15%)
GI% (ACHN (renal cancer)): — (— GI% is below 15%)
GI% (LOX IMIV (melanoma)): 52.47%
GI% (CCRF-CEM (leukemia)): — (— GI% is below 15%)
GI% (T-47D (breast cancer)): — (— GI% is below 15%)
GI% [6]: 39.55%
GI% (U251 (CNS cancer)): 24.9%
GI% [7]: 31.51%
GI% (UACC-62 (melanoma)): — (— GI% is below 15%)
GI% [8]: — (— GI% is below 15%)
inhibition at 10 µM [9]: 18.3%
GI% (HOP-92 (NSC lung cancer)): 29.46%
GI% (786-0 (renal cancer)): — (— GI% is below 15%)
GI% (SF-295 (CNS cancer)): 47.66%
GI% [10]: — (— GI% is below 15%)
GI% (EKVX (NSC lung cancer)): 23.07%
GI% (SF-268 (CNS cancer)): 42.23%
GI% (DU-145 (prostate cancer)): 24.06%
GI% (PC-3 (prostate cancer)): — (— GI% is below 15%)
GI% (RPMI-8226 (leukemia)): 19.37%
GI% (SN12C (renal cancer)): — (— GI% is below 15%)
GI% (SW-620 (colon cancer)): — (— GI% is below 15%)
GI% (MDA-MB-435 (melanoma)): 23.87%
GI% (SK-MEL-2 (melanoma)): — (— GI% is below 15%)
GI% (A498 (renal cancer)): — (— GI% is below 15%)
GI% (SK-OV-3 (ovarian cancer)): — (— GI% is below 15%)
GI% (HOP-62 (NSC lung cancer)): — (— GI% is below 15%)
GI% (UO-31 (renal cancer)): 15.52%
GI% (HCT-15 (colon cancer)): 30.81%
GI% (HS 578T (breast cancer)): 53.45%
GI% (RXF 393 (renal cancer)): — (— GI% is below 15%)
GI% [11]: — (— GI% is below 15%)
